Patent US8222260B2, “Substituted 6-anilinopurine derivatives as inhibitors of cytokinin oxidase/dehydrogenase and preparations containing these derivatives” (Univerzita Palackego V Olomouci, priority 2007, dated 2012)
Where “and” joins values, the source holds several entries; their conditions need not be identical. Identical values can stand only once.

Key:
[1] = system: Human diploid fibroblasts HCA; test: Anti-aging activity: senescence-associated beta-galactosidase in human fibroblasts; type: cell-based; details: for Senescent Cells (%) HCA passage 25: passage 25, cells expressing senescence-associated beta-galactosidase; for Senescent Cells (%) HCA passage 50: passage 50, cells expressing senescence-associated beta-galactosidase; for Senescent Cells (%) HCA passage 80: passage 80, cells expressing senescence-associated beta-galactosidase
Experimental: In this example, effects of the compounds of this invention on the activity of a senescence biomarker senescence-associated β-galactosidase was studied. Human diploid fibroblasts HCA of various passage levels were used for this purpose. The tested compounds were added to the medium at each passage. After the incubation period, cells were washed with PBS and fixed with 2% formaldehyde and 0.2% glutaraldehyde in PBS. After another wash with PBS, they were incubated with the staining solution comprising potassium ferricyanide (5 mM), potassium ferrocyanide (5 mM), MgCl2 (2 mM), X-gal (5-bromo-4-chloro-3-indolyl-β-D-galactopyranoside) (1 mg/ml), in citric/phosphate buffer (pH 6.0) at 37° C. (without CO2) for at least 1 hour. Following the incubation period, the numbers of cells expressing senescence-associated β-galactosidase (blue cells) were counted using light microscope.

AHK3 = target: T1, AHK3 (Arabidopsis thaliana, UniProt Q9C5U1); test: Activation of cytokinin receptors (E. coli KMI001 beta-galactosidase reporter); type: cell-based; details: 28 h incubation; n.a. means no activation
T1 sequence (Q9C5U1 1-1036): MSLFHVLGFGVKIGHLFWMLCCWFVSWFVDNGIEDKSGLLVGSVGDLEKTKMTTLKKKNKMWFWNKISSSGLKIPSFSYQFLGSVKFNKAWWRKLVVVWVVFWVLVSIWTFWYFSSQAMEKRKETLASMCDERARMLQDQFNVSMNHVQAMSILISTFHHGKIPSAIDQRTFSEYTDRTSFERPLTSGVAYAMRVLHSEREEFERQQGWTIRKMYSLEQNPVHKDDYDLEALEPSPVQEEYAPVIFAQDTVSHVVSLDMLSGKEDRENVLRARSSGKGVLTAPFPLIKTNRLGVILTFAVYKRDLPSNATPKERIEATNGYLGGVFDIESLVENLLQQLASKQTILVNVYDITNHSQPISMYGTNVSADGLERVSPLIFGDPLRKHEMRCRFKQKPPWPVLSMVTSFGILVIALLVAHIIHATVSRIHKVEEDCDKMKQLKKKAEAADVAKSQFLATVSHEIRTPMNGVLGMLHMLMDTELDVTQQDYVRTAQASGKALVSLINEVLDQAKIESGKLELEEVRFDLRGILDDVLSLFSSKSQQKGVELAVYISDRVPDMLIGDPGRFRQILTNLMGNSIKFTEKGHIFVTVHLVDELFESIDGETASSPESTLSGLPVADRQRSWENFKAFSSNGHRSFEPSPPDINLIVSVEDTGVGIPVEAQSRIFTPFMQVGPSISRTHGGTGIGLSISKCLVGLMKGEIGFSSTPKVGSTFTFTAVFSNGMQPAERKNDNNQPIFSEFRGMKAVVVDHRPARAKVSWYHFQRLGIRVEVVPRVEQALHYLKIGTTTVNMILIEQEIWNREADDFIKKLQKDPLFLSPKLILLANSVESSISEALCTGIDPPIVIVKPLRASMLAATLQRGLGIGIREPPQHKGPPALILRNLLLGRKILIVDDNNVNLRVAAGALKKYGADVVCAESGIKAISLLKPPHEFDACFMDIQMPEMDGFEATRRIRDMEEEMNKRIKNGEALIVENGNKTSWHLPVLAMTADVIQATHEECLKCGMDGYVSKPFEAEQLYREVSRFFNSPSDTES
Experimental: Escherichia coli strains KMI001 harbouring the plasmid […]4 or […]3 were grown overnight at 25° C. in M9 media enriched with 0.1% casamino acids to OD600 1. The preculture was diluted 1:600 in 1 ml M9 medium containing 0.1% casamino acids and 1 μl stock solution of either the tested compound (10^-7 M-5×10^-5 M) or solvent control (DMSO, ethanol, methanol) were added. The cultures were further grown at 25° C. in microtiter plate, 200 μl per well. […] The cultures were centrifuged and 50 μl aliquots of the supernatant were transferred to microtiter plate containing 2 μl 150 mM 4-methyl umbelliferyl galactoside which was subsequently incubated for 1 h at 37° C. The reaction was stopped by adding 100 μl 0.2 M Na2CO3. […] The EC50 value, the compound concentration activating the receptor to 50%, was calculated from the obtained dose response curves. The values shown in Table 10 are means of three replicates and the entire test was repeated at least twice.

[2] = system: Amaranthus caudatus cotyledon/hypocotyl explants; test: Amaranthus bioassay (betacyanin content); type: cell-based, Amaranthus caudatus var. atropurpurea; details: for Activity (%) [10^−5 mol · l^−1 K = 100%]: at the concentration with highest activity, relative to 10^−5 M kinetin
Experimental: The standard Amaranthus bioassay was performed with the following modifications. The seeds of Amaranthus caudatus var. atropurpurea were surface-sterilised in 10% (w/v) N-chlorobenzenesulfonamide for 10 min and washed 5 times with deionized water. They were placed in 15 cm Petri dishes containing paper tissues saturated with deionized water. After 72 h of cultivation at 25° C. in darkness, the roots of the seedlings were cut off. The explants, consisting of two cotyledons and hypocotyls, were placed in 5 cm Petri dishes onto two layers of filtration paper soaked with 1 ml of the incubation medium containing 10 μmol of Na2HPO4—KH2PO4, pH 6.8, 5 μmol of tyrosine and the compound to be tested. There were 20 explants per dish. The procedure was carried out under green safe light in a darkroom. After 48 h of incubation at 25° C. in darkness, betacyanin was extracted by freezing the explants in 4 ml 3.33 μM acetic acid. The concentration of betacyanin was determined from the absorbances at 537 nm and 620 nm as follows: ΔA=A537nm−A620nm. The values ΔA were plotted against the concentration tested, are means of five replicates and the entire test was repeated at least twice. […] The compounds to be tested were dissolved in dimethylsulfoxide (DMSO) and the solution brought up to 10^−3M with distilled water.
From the obtained data, the concentration with the highest activity was selected for each compound tested. Relative activity of the compound at this concentration was calculated (Tab. 12). The activity obtained for 10^−5 M kinetin (K) was postulated as 100%.

[3] = system: cytokinin-dependent tobacco callus Nicotiana tabacum L. cv. Wisconsin 38; test: Tobacco callus biotest (plant cell division); type: cell-based; details: for Activity (%) [10^−5 mol · l^−1 K = 100%]: at the concentration with highest activity, relative to 10^−5 M kinetin
Experimental: The stimulatory effect of the newly prepared derivatives was tested in the calus biotest using cytokinin-dependent tobacco callus. Cytokinin-dependent tobacco callus Nicotiana tabacum L. cv. Wisconsin 38 was maintained at 25° C. in darkness on modified Murashige-Skoog medium, containing per 1 liter: 4 μmol of nicotinic acid, 2.4 μmol of pyridoxine hydrochloride, 1.2 μmol of thiamine, 26.6 μmol of glycine, 1.37 μmol of glutamine, 1.8 μmol of myo-inositol, 30 g of sucrose, 8 g of agar, 5.37 μmol of NAA and 0.5 μmol of 6-benzylaminopurine. Subcultivation was carried out every three weeks. Fourteen days before the bioassay, the callus tissue was transferred to the media without 6-benzylaminopurine. The biological activity was determined from the increase of the fresh callus weight after four weeks of cultivation. Five replicates were prepared for each concentration of the compound tested and the entire test was repeated twice. […] The compounds to be tested were dissolved in dimethylsulfoxide (DMSO) and the solution brought up to 10^−3 M with distilled water.
From the obtained data, the concentration with the highest activity was selected for each compound tested. Relative activity of the compound at this concentration was calculated (Table 11). The activity obtained for 10^−5 M of the control substance kinetin (K) was postulated as 100%.

| EC50 (AHK3) | SMILES | Senescent Cells (%) HCA passage 25 [1] | Senescent Cells (%) HCA passage 50 [1] | Senescent Cells (%) HCA passage 80 [1] | Activity (%) [10^−5 mol · l^−1 K = 100%] [2] | also measured |
| --- | --- | --- | --- | --- | --- | --- |
| – | CSc1nc(Nc2ccc(O)cc2)c2[nH]cnc2n1 [2-methylthio-6-(4-hydroxyanilino)purine] | 4% | 6% | 34% | – | – |
| 19.5 µM | Nc1nc(Nc2ccc(F)cc2)c2nc[nH]c2n1 [Compound 70] | – | – | – | 136% | – |
| 22.5 µM | Fc1ccc(Nc2nc(F)nc3[nH]cnc23)cc1 [Compound 46] | – | – | – | 109% | Activity (%) [10^−5 mol · l^−1 K = 100%] [3]: 110.7% |
| – | Fc1ccc(Nc2nc(Cl)nc3[nH]cnc23)cc1 [Compound 7] | – | – | – | 104% | Activity (%) [10^−5 mol · l^−1 K = 100%] [3]: 112% |
| – | COc1cccc(Nc2nc(F)nc3nc[nH]c23)c1 [2-fluoro-6-(3-methoxyanilino)purine] | 3% | 5% | 29% | – | – |
| 10.2 µM | Sc1nc(Nc2ccc(Cl)cc2)c2nc[nH]c2n1 [Compound 81] | – | – | – | 122.9% | Activity (%) [10^−5 mol · l^−1 K = 100%] [3]: 115.7% |
| – | COc1cccc(Nc2nc(N)nc3nc[nH]c23)c1 [2-amino-6-(3-methoxyanilino)purine] | 4% | 4% | 22% | – | – |
| 26.3 µM | COc1ccc(Nc2nc(N)nc3[nH]cnc23)cc1 [Compound 76] | – | – | – | – | – |
| – | Oc1ccc(Nc2nc(F)nc3nc[nH]c23)cc1 [2-fluoro-6-(4-hydroxyanilino)purine] | 3% | 4% | 18% | – | – |
| – | Nc1nc(Nc2ccc(O)cc2)c2nc[nH]c2n1 [2-amino-(4-hydroanilino)purine] | 3% | 4% | 21% | – | – |
| 8.1 µM | Nc1nc(Nc2ccc(Cl)cc2)c2nc[nH]c2n1 [Compound 67] | – | – | – | 141.7% | – |
| – | COc1cccc(Nc2nc(Cl)nc3nc[nH]c23)c1 [2-chloro-6-(3-methoxyanilino)purine] | 5% | 5% | 24% | – | – |
| – | COc1cc(Nc2nc(Cl)nc3nc[nH]c23)ccc1O | 4% | 6% | – | – | – |
| 18.9 µM | COc1ccc(Nc2nc(F)nc3[nH]cnc23)cc1 [Compound 52] | – | – | – | – | Activity (%) [10^−5 mol · l^−1 K = 100%] [3]: 105% |
| – | COc1ccccc1Nc1nc(Cl)nc2nc[nH]c12 [Compound 11] | – | – | – | 110.3% and 121.7% | Activity (%) [10^−5 mol · l^−1 K = 100%] [3]: 109%; concentration with highest activity ([3]; fresh weight after four weeks): 10^−5 mol · l^−1; concentration with highest activity ([2]; 48 h): 10^−5 mol · l^−1 |
| 29 µM | COc1ccccc1Nc1nc(N)nc2[nH]cnc12 [Compound 74] | – | – | – | 108% | – |
| – | Nc1nc(Nc2ccc(O)cc2)c2[nH]cnc2n1 [2-amino-(4-hydroxyanilino)purine] | 4% | 4% | 18% | – | – |
| – | COc1ccc(Nc2nc(Cl)nc3nc[nH]c23)cc1 [2-chloro-6-(4-methoxyanilino)purine] | 4% | 3% | 26% | – | – |
| 33.1 µM | COc1ccc(Nc2nc(Cl)nc3[nH]cnc23)cc1 [Compound 13] | – | – | – | – | – |
